Results from publication PMC4519324, “Substrate Specificity, Inhibitor Selectivity and Structure-Function Relationships of Aldo-Keto Reductase 1B15: A Novel Human Retinaldehyde Reductase” (PLoS ONE, 2015).
Like-named read-outs stand apart in the source and are kept apart here.

Experiments:
CC(=O)CC(C)=O = assay: Spectrophotometric activity assay (NADPH decrease at 340 nm), substrate kinetics; type: biochemical, human; settings: other: AKR1B1, pH 7.0, 25.0 °C
Procedure: (§1) Activities were determined in 100 mM sodium phosphate, pH 7.0, at 25°C, using 0.2 mM NADPH in 0.2-cm path length cuvettes, with freshly prepared substrate solutions. One unit of activity is defined as the amount of enzyme required to transform 1 μmol of substrate per min at 25°C.
(§2) All compounds tested as inhibitors were dissolved in DMSO and assayed in a final concentration of 0.1% (v/v) DMSO using 6 mM D,L-glyceraldehyde as a substrate. Kinetic constant and IC50 (compound concentration that inhibits enzymatic activity by 50%) values were calculated by fitting the initial rates to the appropriate equation using Grafit 5.0 (Eritacus Software) and values were given as the mean ± standard error of three experiments. Standard error values were less than 20% of the mean values.

CC(C)=CCC/C(C)=C/C=O = assay: as above; type: biochemical, human; settings: other: AKR1B1, pH 7.0, 25.0 °C
Procedure: as §1, §2

CCC(=O)CC(=O)CC = assay: as above; type: biochemical, human; settings: other: AKR1B1, pH 7.0, 25.0 °C
Procedure: as §1, §2

AKR1B15 [1] = target: T1, AKR1B15 (Homo sapiens, UniProt C9JRZ8); assay: Inhibition screening with D,L-glyceraldehyde as substrate; type: biochemical; settings: 6 mM D,L-glyceraldehyde as substrate, 0.1% DMSO
T1 construct: made in house; host or cells: E. coli BL21(DE3), with or without chaperone plasmids pBB540/pBB542
T1 sequence (C9JRZ8 whole entry): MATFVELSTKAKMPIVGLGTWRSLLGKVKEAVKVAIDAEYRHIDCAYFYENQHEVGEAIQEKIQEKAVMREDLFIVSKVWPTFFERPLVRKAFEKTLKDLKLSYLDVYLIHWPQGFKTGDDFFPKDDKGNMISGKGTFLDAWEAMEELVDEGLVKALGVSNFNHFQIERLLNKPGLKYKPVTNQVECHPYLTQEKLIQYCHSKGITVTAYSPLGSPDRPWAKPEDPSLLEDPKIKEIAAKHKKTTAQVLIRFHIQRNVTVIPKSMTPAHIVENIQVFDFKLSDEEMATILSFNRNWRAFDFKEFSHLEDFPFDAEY
Procedure: as §1, §2

AKR1B10 [2] = target: T2, AKR1B10 (Homo sapiens, UniProt O60218); settings: cited from earlier work
T2 construct: made in house
T2 sequence (O60218 whole entry): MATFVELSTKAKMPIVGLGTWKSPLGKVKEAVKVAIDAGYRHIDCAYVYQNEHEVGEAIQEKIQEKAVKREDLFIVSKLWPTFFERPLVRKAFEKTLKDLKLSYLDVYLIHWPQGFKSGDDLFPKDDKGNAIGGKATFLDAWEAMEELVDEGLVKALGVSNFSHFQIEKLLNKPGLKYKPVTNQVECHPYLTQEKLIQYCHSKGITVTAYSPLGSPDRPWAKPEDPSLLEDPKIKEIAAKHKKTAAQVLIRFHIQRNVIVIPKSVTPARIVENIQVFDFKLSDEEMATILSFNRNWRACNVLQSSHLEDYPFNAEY

AKR1B1 [3] = target: T3, AKR1B1 (Homo sapiens, UniProt P15121); settings: cited from earlier work
T3 construct: made in house

AKR1B15 [4] = target: T1, AKR1B15; assay: Spectrophotometric activity assay (NADPH decrease at 340 nm), substrate kinetics; type: biochemical; settings: for k cat: pH 7.0, 25°C
AKR1B10 [5] = target: T2, AKR1B10; assay: as above; type: biochemical; settings: for activity class: at saturating concentration of substrate for AKR1B15
AKR1B1 [6] = target: T3, AKR1B1; assay: as above; type: biochemical; settings: at saturating concentration of substrate for AKR1B15
Procedure: as §1, §2

AKR1B10 [7] = target: T2, AKR1B10; assay: Inhibition of enzymatic activity with D,L-glyceraldehyde as substrate; type: biochemical
Procedure: as §1, §2

AKR1B15 [8] = target: T1, AKR1B15; assay: HPLC enzymatic activity assay with retinaldehyde isomers; type: biochemical; settings: HPLC-based method; for k cat: pH 7.4
Procedure: Activity assays with retinoids were carried out using an HPLC-based methodology. Briefly, retinaldehyde isomers were solubilized using glass tubes by a 10-min sonication at molar ratio 1:1 with fatty acid-free bovine serum albumin in 90 mM potassium phosphate, 40 mM potassium chloride, pH 7.4. The actual amount of solubilized retinoid was determined based on the corresponding molar absorption coefficient in aqueous solutions at the appropriate wavelength: ε400 = 29,500 M^−1·cm^−1 for all-trans-retinaldehyde and ε367 = 26,700 M^−1·cm^−1 for 9-cis-retinaldehyde. For retinol isomers, which were used as standards of the reaction product, their concentration was determined in hexane using ε325 = 51,770 M^−1·cm^−1 for all-trans-retinol and ε325 = 43,765 M^−1·cm^−1 for 9-cis-retinol. The reactions were started by the addition of cofactor and carried out for 15 min at 37°C in a final volume of 0.5 mL. With the aim to measure the steady-state enzymatic activity, the concentration of enzyme was kept from 25- to 100-fold lower than that of the substrate for all the enzymatic assays. The reactions were stopped by the addition of 1 mL of cold methanol and after two rounds of extraction with hexane, retinoids were analyzed by HPLC as previously described. All retinoid manipulations were performed under dim light.
as §2

AKR1B10 [9] = target: T2, AKR1B10; parameters: method as in PMID 18087047; settings: HPLC-based method; cited from earlier work
AKR1B1 [10] = target: T3, AKR1B1; parameters: method as in PMID 18087047; settings: HPLC-based method; cited from earlier work
AKR1B10 [11] = target: T2, AKR1B10; assay: NADPH binding by quenching of Trp intrinsic fluorescence; settings: 0.5 μM protein, 20 mM sodium phosphate, pH 7.0, 25°C, read-out: K D value for NADPH
Procedure: (§3) NADPH binding was analyzed by quenching of Trp intrinsic fluorescence of 0.5 μM protein, using a Cary Eclipse (Varian) fluorimeter, in 20 mM sodium phosphate, pH 7.0, at 25°C in a final volume of 1 mL. The excitation wavelength was 290 nm and the emission wavelength was monitored at 340 nm. AKR1B10 was used as a control. The dissociation constant (K D) values were calculated by nonlinear fitting of experimental data, using Grafit 5.0 (Eritacus Software), to the Morrison equation: ΔF=ΔFmax·[E]+[NADPH]+KD−([E]+[NADPH]+KD)^2−4·[E]·[NADPH]/2·[E]

AKR1B15 [12] = target: T1, AKR1B15; assay: as above; settings: 0.5 μM protein, 20 mM sodium phosphate, pH 7.0, 25°C, read-out: K D value for NADPH
Procedure: as §3

AKR1B1 [13] = target: T3, AKR1B1; settings: read-out: Km (μM) for cofactor NADPH; cited from earlier work
[14] = substrate, spectrophotometric, 100 mM sodium phosphate pH 7.0, 25°C, 0.2 mM NADPH, <1 values only approximate, read-out: Km
[15] = substrate, spectrophotometric, 0.2 mM NADPH

Compound: AKR1B1 (Homo sapiens)
- Km (CC(=O)CC(C)=O): 8,100 μM
- kcat (CC(=O)CC(C)=O): 0.278 s⁻¹
- kcat/Km (CC(=O)CC(C)=O): 36.7 M⁻¹ s⁻¹
- Km (CC(C)=CCC/C(C)=C/C=O): 35 µM
- kcat (CC(C)=CCC/C(C)=C/C=O): 1.13 s⁻¹
- kcat/Km (CC(C)=CCC/C(C)=C/C=O): 29200 M⁻¹ s⁻¹
- Km (CCC(=O)CC(=O)CC): 12,000 μM
- kcat (CCC(=O)CC(=O)CC): 0.433 s⁻¹
- kcat/Km (CCC(=O)CC(=O)CC): 36.7 M⁻¹ s⁻¹

Compound: Oc1c(F)c(F)c(-c2c(F)c(F)c(O)c(F)c2F)c(F)c1F [JF0064, 2,2’,3,3’,5,5’,6,6’-octafluoro-4,4’-biphenyldiol]
- IC50 (AKR1B15 [1]): 0.034 ± 0.005 µM
- IC50 (AKR1B10 [2]; AKR1B10, values in Table 3): < 10 µM
- IC50 (AKR1B1 [3]; AKR1B1, values in Table 3): < 10 µM

Compound: C[C@H](CCC(=O)O)[C@H]1CC[C@H]2[C@@H]3CC[C@@H]4C[C@H](O)CC[C@]4(C)[C@H]3CC[C@]12C [Lithocholic acid]
- IC50 (AKR1B15 [1]): 16.3 ± 7.6 µM
- IC50 (AKR1B10 [2]; AKR1B10): 0.12 µM
- selectivity between AKR1B10 and AKR1B1 (AKR1B10 [2]; in words): more selective against AKR1B10
- IC50 (AKR1B1 [3]; AKR1B1): 7.2 µM

Compound: CCC(C)=O [2-butanone]
- Km (AKR1B15 [4]; [14]): 780 µM
- k cat (AKR1B15 [4]; [15]): 0.175 s⁻¹
- activity class (AKR1B10 [5]): LA (LA, low activity (≤ 10 mU/mg) was detected at saturating concentration of substrate for AKR1B15)
- activity class (AKR1B1 [6]): LA (LA, low activity (≤ 10 mU/mg) was detected at saturating concentration of substrate for AKR1B15)

Compound: C=CC(C)=O [3-buten-2-one]
- Km (AKR1B15 [4]; [14]): 21.3 µM
- k cat (AKR1B15 [4]; [15]): 0.137 s⁻¹
- activity class (AKR1B10 [5]): LA (LA, low activity (≤ 10 mU/mg) was detected at saturating concentration of substrate for AKR1B15)
- activity class (AKR1B1 [6]): LA (LA, low activity (≤ 10 mU/mg) was detected at saturating concentration of substrate for AKR1B15)

Compound: CC1=C(CC(=O)O)c2cc(F)ccc2/C1=C\c1ccc([S+](C)[O-])cc1 (centres unmarked) [Sulindac]
- IC50 (AKR1B15 [1]): > 100 µM
- IC50 (AKR1B10 [2]; AKR1B10, values in Table 3): < 10 µM
- IC50 (AKR1B1 [3]; AKR1B1, values in Table 3): < 10 µM

Compound: COc1ccc2c(C(=S)N(C)CC(=O)O)cccc2c1C(F)(F)F [Tolrestat]
- IC50 (AKR1B15 [1]): > 100 µM
- IC50 (AKR1B10 [7]): 0.006 µM
- IC50 (AKR1B10 [2]; AKR1B10, values in Table 3): < 10 µM

Compound: O=C1C=CCCC1 [2-cyclohexen-1-one]
- Km (AKR1B15 [4]; [14]): 365 µM
- k cat (AKR1B15 [4]; [15]): 0.0735 s⁻¹
- activity class (AKR1B10 [5]): LA (LA, low activity (≤ 10 mU/mg) was detected at saturating concentration of substrate for AKR1B15)
- activity class (AKR1B1 [6]): LA (LA, low activity (≤ 10 mU/mg) was detected at saturating concentration of substrate for AKR1B15)

Compound: CC1=C(/C=C/C(C)=C/C=C/C(C)=C/C=O)C(C)(C)CCC1 [All-trans-retinaldehyde]
- k cat (AKR1B15 [8]; 37°C): 0.09 ± 0.0083 s⁻¹
- Km (AKR1B15 [8]; 37°C, pH 7.4, read-out: Km): 1 ± 0.3 µM
- Km (AKR1B10 [9]): 0.6 ± 0.1 µM
- k cat (AKR1B10 [9]): 0.45 ± 0.017 s⁻¹
- Km (AKR1B1 [10]): 1.1 ± 0.1 µM
- k cat (AKR1B1 [10]): 0.015 ± 0.0017 s⁻¹

Compound: CCCCCC=CC(C)=O [3-nonen-2-one]
- Km (AKR1B15 [4]; [14]): 1.7 µM
- k cat (AKR1B15 [4]; [15]): 0.113 s⁻¹
- activity class (AKR1B10 [5]): LA (LA, low activity (≤ 10 mU/mg) was detected at saturating concentration of substrate for AKR1B15)
- activity class (AKR1B1 [6]): LA (LA, low activity (≤ 10 mU/mg) was detected at saturating concentration of substrate for AKR1B15)

Compound: NC(=O)C1=CN([C@@H]2O[C@H](COP(=O)(O)OP(=O)(O)OC[C@H]3O[C@@H](n4cnc5c(N)ncnc54)[C@H](OP(=O)(O)O)[C@@H]3O)[C@@H](O)[C@H]2O)C=CC1 [NADPH]
- Km (AKR1B15 [4]; 3 mM D,L-glyceraldehyde, read-out: Km (μM) for cofactor NADPH): 5.7 µM
- Km (AKR1B10 [5]; 60 mM D,L-glyceraldehyde, read-out: Km (μM) for cofactor NADPH): 10 µM
- Kd (AKR1B10 [11]): 0.092 ± 0.035 µM
- Kd (AKR1B15 [12]): 0.113 ± 0.009 µM
- Km (AKR1B1 [13]): 2.9 µM

Compound: CC1=C(/C=C/C(C)=C\C=C\C(C)=C\C=O)C(C)(C)CCC1 [9-cis-retinaldehyde]
- k cat (AKR1B15 [8]; 37°C): 0.0633 ± 0.0033 s⁻¹
- Km (AKR1B15 [8]; 37°C, pH 7.4, read-out: Km): 0.16 ± 0.03 µM
- Km (AKR1B15 [8]; read-out: Km value): 0.16 µM
- Km (AKR1B10 [9]): 0.7 ± 0.1 µM
- k cat (AKR1B10 [9]): 0.015 ± 0.0017 s⁻¹
- Km (AKR1B1 [10]): 0.4 ± 0.1 µM
- k cat (AKR1B1 [10]): 0.012 ± 0.0033 s⁻¹
